Results: patent US9115093B2, “Substituted bicyclic dihydropyrimidinones and their use as inhibitors of neutrophil elastase activity” (Boehringer Ingelheim International GmbH, priority 2013, dated 2015)

target: T1, neutrophil elastase (Homo sapiens, UniProt P08246); assay: Human Neutrophil Elastase Assay; assay type: biochemical; parameters: purchased Calbiochem 324681; conditions: substrate MeOSuc-Ala-Ala-Pro-Val-AMC, pH 7.5, room temperature
T1 sequence (P08246 30-247 limits assumed): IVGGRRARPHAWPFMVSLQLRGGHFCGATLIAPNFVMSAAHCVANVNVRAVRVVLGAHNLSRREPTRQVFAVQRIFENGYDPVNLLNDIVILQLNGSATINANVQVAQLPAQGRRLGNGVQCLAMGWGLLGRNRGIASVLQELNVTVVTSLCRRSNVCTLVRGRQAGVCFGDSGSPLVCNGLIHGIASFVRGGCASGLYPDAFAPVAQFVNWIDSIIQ
Procedure: Human Neutrophil Elastase Assay
Materials: Human neutrophil elastase was purchased from Calbiochem (Cat.No.: 324681) and the elastase substrate MeOSuc-Ala-Ala-Pro-Val-AMC from Bachem (Cat.No.: I-1270). All other materials were of the highest grade commercially available.
The following buffers were used: Compound buffer: 100 mM Tris, 500 mM NaCl, adjusted to pH 7.5; Assay buffer: 100 mM Tris, 500 mM NaCl, adjusted to pH 7.5, containing 0.01% BSA.
Assay conditions: Test compounds were prediluted in DMSO and subsequently in compound buffer (5% DMSO final). 5 μL of these compound dilutions were mixed with 10 μl Neutrophil elastase (9 ng/ml in assay buffer) in a black 384 well OptiPlate (Perkin Elmer, Cat No.: 6007270) and incubated for 15 min at room temperature. Subsequently 10 μL substrate solution in assay buffer were added (250 nM final concentration) and the plates were incubated for 60 min at room temperature. After inactivation of the enzyme, fluorescence intensities were measured at 380 nm excitation and 460 nm emission wavelengths.
Each plate contains wells with a high value control (DMSO+enzyme+substrate) and wells with a low value control (DMSO+inactivated enzyme+substrate). IC50 values were estimated using a sigmoidal concentration response curve with variable slope. Means of low values were taken as 0%, means of high values as 100%.

SMILES	IC50 [nM]
CC(C)(O)CNC(=O)CN1C(=O)N(c2cccc(C(F)(F)F)c2)C2=C(C(=O)CCC2)C1c1ccc(C#N)cc1 (centres unmarked) [Example 36.14]	8.1
Cc1cc(C#N)ccc1C1NC(=O)N(c2cccc(C(F)(F)F)c2)C2=C1C(=O)CCC2 (centres unmarked) [Example 55, 4-(2,5-Dioxo-1-(3-(trifluoromethyl)phenyl)-1,2,3,4,5,6,7,8-octahydroquinazolin-4-yl)-3-methylbenzonitrile]	18.7
COC(=O)N1C(=O)N(c2cccc(C(F)(F)F)c2)C2=C(C(=O)CCC2)C1c1ccc(C#N)cc1 (centres unmarked) [Example 40, Methyl 4-(4-Cyanophenyl)-2,5-dioxo-1-(3-(trifluoromethyl)phenyl)-1,2,5,6,7,8-hexahydroquinazoline-3(4H)-carboxylate]	9
N#Cc1ccc(C2NC(=O)N(c3cccc(C(F)(F)F)c3)C3=C2C(=O)CC(C(F)(F)F)C3)cc1 (centres unmarked) [Example 5, 4-(2,5-Dioxo-7-(trifluoromethyl)-1-(3-(trifluoromethyl)phenyl)-1,2,3,4,5,6,7,8-octahydroquinazolin-4-yl)benzonitrile]	65.8
N#Cc1ccc(C2C3=C(CCCC3=O)N(c3cccc(C(F)(F)F)c3)C(=O)N2CC(=O)N2CCc3[nH]c(=O)ccc3C2)cc1 (centres unmarked) [Example 36.71]	2.2
N#Cc1ccc(C2C3=C(CCCC3=O)N(c3cccc(C(F)(F)F)c3)C(=O)N2CC(=O)NCc2ccc(=O)[nH]c2)cc1 (centres unmarked) [Example 36.52]	11.7
CN(C)CCNC(=O)CN1C(=O)N(c2cccc(C(F)(F)F)c2)C2=C(C(=O)CCC2)C1c1ccc(C#N)cc1 (centres unmarked) [Example 36.10]	20
N#Cc1ccc(C2C3=C(CCCC3=O)N(c3cccc(C(F)(F)F)c3)C(=O)N2CC(=O)N2CCN3C(=O)CCCC3C2)cc1 (centres unmarked) [Example 36.72]	3.7
N#Cc1ccc(C2C3=C(CCCC3=O)N(c3cccc(C(F)(F)F)c3)C(=O)N2CC(=O)N2CCN3CCCC3C2)cc1 (centres unmarked) [Example 36.56]	8
CNC(=O)N1C(=O)N(c2cccc(C(F)F)c2)C2=C(C(=O)CCC2)C1c1ccc(C#N)cc1S(C)(=O)=O (centres unmarked) [Example 50, 4-(4-Cyano-2-(methylsulfonyl)phenyl)-1-(3-(difluoromethyl)phenyl)-N-methyl-2,5-dioxo-1,2,5,6,7,8-hexahydroquinazoline-3(4H)-carboxamide]	< 1
CN1CCC(NC(=O)CN2C(=O)N(c3cccc(C(F)(F)F)c3)C3=C(C(=O)CCC3)C2c2ccc(C#N)cc2)CC1 (centres unmarked) [Example 36.38]	16.9
N#Cc1ccc(C2C3=C(CCCC3=O)N(c3cccc(C(F)(F)F)c3)C(=O)N2CC(=O)NCC2CCC(=O)N2)cc1 (centres unmarked) [Example 36.36]	7.9
CS(=O)(=O)c1ccc(CNC(=O)N2C(=O)N(c3cccc(C(F)(F)F)c3)C3=C(C(=O)CCC3)C2c2ccc(C#N)cc2)cc1 (centres unmarked) [Example 37, 4-(4-Cyanophenyl)-N-(4-(methylsulfonyl)benzyl)-2,5-dioxo-1-(3-(trifluoromethyl)-phenyl)-1,2,5,6,7,8-hexahydroquinazoline-3(4H)-carboxamide]	< 1
N#Cc1ccc(C2C3=C(CCCC3=O)N(c3cccc(C(F)(F)F)c3)C(=O)N2CC(=O)NCC2CCOC2)cc1 (centres unmarked) [Example 36.22]	6.8
CS(=O)(=O)c1cc(C#N)ccc1[C@@H]1C2=C(CCCC2=O)N(c2cccc(C(F)(F)F)c2)C(=O)N1C(=O)NC1CC(O)C1 (some centres unmarked) [Example 75.11]	< 1
CC(C#N)NC(=O)N1C(=O)N(c2cccc(C(F)(F)F)c2)C2=C(C(=O)CCC2)[C@H]1c1ccc(C#N)cc1S(C)(=O)=O (some centres unmarked) [Example 75.4]	< 1
CS(=O)(=O)C1CCN(C(=O)CN2C(=O)N(c3cccc(C(F)(F)F)c3)C3=C(C(=O)CCC3)C2c2ccc(C#N)cc2)C1 (centres unmarked) [Example 36.70]	2.3
CC1CCN(C(=O)CN2C(=O)N(c3cccc(C(F)(F)F)c3)C3=C(C(=O)CCC3)C2c2ccc(C#N)cc2)CC1 (centres unmarked) [Example 36.19]	10.2
Cc1nnc(CNC(=O)CN2C(=O)N(c3cccc(C(F)(F)F)c3)C3=C(C(=O)CCC3)C2c2ccc(C#N)cc2)o1 (centres unmarked) [Example 36.35]	7
CN(C)C(=O)N1C(=O)N(c2cccc(C(F)(F)F)c2)C2=C(C(=O)CCC2)C1c1ccc(C#N)cc1 (centres unmarked) [Example 38, 4-(4-Cyanophenyl)-N,N-dimethyl-2,5-dioxo-1-(3-(trifluoromethyl)phenyl)-1,2,5,6,7,8-hexahydroquinazoline-3(4H)-carboxamide]	67.1
CN1C(=O)N(c2ccnc(C(F)(F)F)c2)C2=C(C(=O)CCC2)C1c1ccc(C#N)cc1 (centres unmarked) [Example 65, 4-(3-Methyl-2,5-dioxo-1-(2-(trifluoromethyl)pyridin-4-yl)-1,2,3,4,5,6,7,8-octahydroquinazolin-4-yl)benzonitrile]	22.6
COCCNC(=O)N1C(=O)N(c2cccc(C(F)(F)F)c2)C2=C(C(=O)CCC2)C1c1ccc(C#N)cc1 (centres unmarked) [Example 39, 4-(4-Cyanophenyl)-N-(2-methoxyethyl)-2,5-dioxo-1-(3-(trifluoromethyl)phenyl)-1,2,5,6,7,8-hexahydroquinazoline-3(4H)-carboxamide]	1
CN(C)C(=O)CN1C(=O)N(c2cccc(C(F)(F)F)c2)C2=C(C(=O)CCC2)C1c1ccc(C#N)cc1 (centres unmarked) [Example 34, 2-(4-(4-Cyanophenyl)-2,5-dioxo-1-(3-(trifluoromethyl)phenyl)-1,2,5,6,7,8-hexahydroquinazolin-3(4H)-yl)-N,N-dimethylacetamide]	3.1
CCS(=O)(=O)c1cc(C#N)ccc1C1NC(=O)N(c2cccc(C(F)(F)F)c2)C2=C1C(=O)CCC2 (centres unmarked) [Example 54, 4-(2,5-Dioxo-1-(3-(trifluoromethyl)phenyl)-1,2,3,4,5,6,7,8-octahydroquinazolin-4-yl)-3-(ethylsulfonyl)benzonitrile]	7.5
N#Cc1ccc(C2C3=C(CCCC3=O)N(c3cccc(C(F)(F)F)c3)C(=O)N2CC(=O)N2CCC3(CC3)C2)cc1 (centres unmarked) [Example 36.16]	3.6
N#Cc1ccc(C2C3=C(CCCC3=O)N(c3cccc(C(F)(F)F)c3)C(=O)N2CC(=O)NCc2ccco2)cc1 (centres unmarked) [Example 36.15]	17.5
N#Cc1ccc(C2C3=C(CCCC3=O)N(c3cccc(C(F)(F)F)c3)C(=O)N2CC(=O)N[C@H]2CCNC2=O)cc1 (some centres unmarked) [Example 36.20]	11.4
CS(=O)(=O)N1CCN(C(=O)CN2C(=O)N(c3cccc(C(F)(F)F)c3)C3=C(C(=O)CCC3)C2c2ccc(C#N)cc2)CC1 (centres unmarked) [Example 36.75]	2.4

Other lines, results leading:

IC50 [nM]	SMILES
< 1	CS(=O)(=O)c1cc(C#N)ccc1C1C2=C(CCCC2=O)N(c2cccc(C(F)(F)F)c2)C(=O)N1C(=O)NCCCO (centres unmarked) [Example 47.3]
9	N#Cc1ccc(C2C3=C(CCCC3=O)N(c3cccc(C(F)(F)F)c3)C(=O)N2S(=O)(=O)Cc2ccccc2)cc1 (centres unmarked) [Example 44.8]
5.1	CC(C)CS(=O)(=O)N1C(=O)N(c2cccc(C(F)(F)F)c2)C2=C(C(=O)CCC2)C1c1ccc(C#N)cc1 (centres unmarked) [Example 44.3]
< 1	N#Cc1ccc(C2C3=C(CCCC3=O)N(c3cccc(C(F)(F)F)c3)C(=O)N2C(=O)NC2CCCS(=O)(=O)C2)cc1 (centres unmarked) [Example 70.20]
< 1	N#Cc1ccc(C2C3=C(CCCC3=O)N(c3cccc(C(F)(F)F)c3)C(=O)N2C(=O)NC2CCOCC2)cc1 (centres unmarked) [Example 70.14]
3	CCCS(=O)(=O)N1C(=O)N(c2cccc(C(F)(F)F)c2)C2=C(C(=O)CCC2)C1c1ccc(C#N)cc1 (centres unmarked) [Example 44.2]
4.4	CNC(=O)N1C(=O)N(c2ccnc(C(F)(F)F)c2)C2=C(C(=O)CCC2)C1c1ccc(C#N)cc1 (centres unmarked) [Example 76.1]
